Experimental data as given in the NIST ThermoML archive (doi:10.1021/je100100n).
Numbers after ± are expanded uncertainties.

Columns and labels:
[1] = 101.3 kPa, Liquid
[2] = xn = mol fraction of the nth substance listed; details: 101 kPa, Liquid, x2 = 0

Row | SMILES | mass density ([1]; 288.15 K) [kg/m3] | mass density ([1]; 298.15 K) [kg/m3] | mass density ([1]; 313.15 K) [kg/m3] | mass density ([1]; 328.15 K) [kg/m3] | mass density ([2]; 288.15 K) [kg/m3] | mass density ([2]; 298.15 K) [kg/m3] | mass density ([2]; 313.15 K) [kg/m3] | mass density ([2]; 328.15 K) [kg/m3]
1 | CC(C)CO [2-methyl-1-propanol] | 805.6 ± 0.46 | 797.916 ± 0.47 | 786.069 ± 0.49 | 773.692 ± 0.51 |  |  |  | 
2 | CCCCO [butan-1-ol] | 813.77 ± 0.45 | 806.137 ± 0.46 | 794.488 ± 0.48 | 782.477 ± 0.49 |  |  |  | 
3 | CCOC(=O)CC(=O)OCC [diethyl 1,3-propanedioate] | 1060.33 ± 0.27 | 1049.6 ± 0.26 | 1033.5 ± 0.23 | 1017.34 ± 0.2 |  |  |  | 
4 | CCO [ethanol] | 794.044 ± 0.48 | 785.489 ± 0.49 | 772.42 ± 0.51 | 758.958 ± 0.53 |  |  |  | 
5 | CO [methanol] | 796.406 ± 0.47 | 786.987 ± 0.49 | 772.74 ± 0.51 | 758.201 ± 0.53 |  |  |  | 
6 | CCCCCO [pentan-1-ol] | 818.801 ± 0.44 | 811.465 ± 0.45 | 800.264 ± 0.47 | 788.737 ± 0.48 |  |  |  | 
7 | CCCO [propan-1-ol] | 809.009 ± 0.46 | 800.973 ± 0.47 | 788.687 ± 0.48 | 775.974 ± 0.5 |  |  |  | 
8 | CC(C)O [propan-2-ol] | 789.342 ± 0.48 | 780.99 ± 0.5 | 767.922 ± 0.52 | 754.001 ± 0.54 |  |  |  | 
9 | CC(C)O [propan-2-ol] + CCOC(=O)CC(=O)OCC |  |  |  |  | 789.342 ± 0.48 | 780.99 ± 0.5 | 767.922 ± 0.52 | 754.001 ± 0.54
